Data set [1] is described as follows: Pharmacokinetics following single oral dose administration in male Sprague-Dawley rats. It counts as in vivo. The note with it: single oral dose of the tartrate salt, 25 mg/kg, plasma, normalized to actual dosing concentration. Here is the method: Blood samples were collected from all animals in Groups 1-3 at 0.25, 0.5, 1, 2, 4, 6, 8, 12 and 24 hours post dose, with each animal bled at all time points. […] The slopes of the elimination phase of the concentrations vs. time curve used to calculate the T1/2 were determined by log-linear regression.
PK analyses were performed and validated using Phoenix® WinNonlin® version 8.0.
Estimated elimination half-life (tr) was also similar among treatment groups (ranged between 1.5 and 2.7 hours post-dose).

For data set [2], the target named is T1, muscarinic acetylcholine receptor human M5 (hM5) (Homo sapiens, UniProt P08912).
T1 construct: expressed in transfected cells
T1 sequence (P08912 1-532): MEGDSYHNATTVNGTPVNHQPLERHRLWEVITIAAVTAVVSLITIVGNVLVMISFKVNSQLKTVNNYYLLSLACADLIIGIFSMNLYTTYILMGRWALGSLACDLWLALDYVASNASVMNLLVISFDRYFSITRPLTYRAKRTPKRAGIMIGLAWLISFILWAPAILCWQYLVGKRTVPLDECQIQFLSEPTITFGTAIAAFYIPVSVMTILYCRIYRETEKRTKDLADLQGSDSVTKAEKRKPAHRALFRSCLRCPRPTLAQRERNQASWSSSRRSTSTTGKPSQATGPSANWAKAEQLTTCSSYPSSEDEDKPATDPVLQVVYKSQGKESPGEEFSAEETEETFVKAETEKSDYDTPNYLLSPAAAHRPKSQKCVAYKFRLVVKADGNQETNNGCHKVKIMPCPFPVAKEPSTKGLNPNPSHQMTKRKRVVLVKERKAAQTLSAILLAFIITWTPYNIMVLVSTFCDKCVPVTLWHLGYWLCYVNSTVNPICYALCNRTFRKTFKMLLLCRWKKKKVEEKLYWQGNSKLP
The data set is described as follows: pERK dose response in CHO cells stably expressing hM5. It counts as cell-based. Particulars: rank hM3>hM5>hM2. An excerpt: (§1) The Flp-In™ cell lines are designed for rapid generation of stable cell lines that express a protein of interest from a Flp-In™ expression vector.
(§2) Extracellular signal-related kinase (ERK1/2 or p42/44) is a kinase in the mitogen-activated protein kinase (MAPK) family. Phosphorylation of ERK (pERK) can be used as a common end point measurement for the activation of many classes of G protein coupled receptors (GPCR) and beta-arrestin linked signaling.
(§3) For the pERK assay, cells were serum starved for 5 to 6 hours. Curves were normalized to the maximum response from the fetal bovine serum (FBS) medium corresponding to a 5-minute stimulation. A 5-minute incubation with the agonists was selected for the dose response pERK assays (n=2).
(§4) Nonlinear regression curves were calculated per the three parameters method with no constraints.

The target in data set [3] is T2, muscarinic acetylcholine receptor human M2 (hM2) (Homo sapiens, UniProt P08172).
T2 construct: expressed in transfected cells
T2 sequence (P08172 1-466): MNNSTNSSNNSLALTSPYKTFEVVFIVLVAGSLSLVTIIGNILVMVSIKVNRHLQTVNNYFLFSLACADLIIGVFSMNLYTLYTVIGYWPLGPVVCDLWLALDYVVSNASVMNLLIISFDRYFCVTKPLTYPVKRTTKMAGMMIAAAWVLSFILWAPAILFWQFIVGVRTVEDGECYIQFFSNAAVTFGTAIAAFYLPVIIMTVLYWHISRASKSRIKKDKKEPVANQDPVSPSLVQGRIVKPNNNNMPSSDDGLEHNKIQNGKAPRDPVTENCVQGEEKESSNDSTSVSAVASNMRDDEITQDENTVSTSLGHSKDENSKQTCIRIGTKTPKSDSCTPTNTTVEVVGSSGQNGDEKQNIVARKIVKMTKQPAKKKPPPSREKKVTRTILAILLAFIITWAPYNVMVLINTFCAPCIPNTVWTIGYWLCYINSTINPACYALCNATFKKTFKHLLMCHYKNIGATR
Kind of data set: pERK dose response in CHO cells stably expressing hM2. Particulars: rank hM3>hM5>hM2. It counts as cell-based.

For data set [4], the target named is T3, muscarinic acetylcholine receptor human M4 (hM4) (Homo sapiens, UniProt P08173).
T3 sequence (P08173 1-479): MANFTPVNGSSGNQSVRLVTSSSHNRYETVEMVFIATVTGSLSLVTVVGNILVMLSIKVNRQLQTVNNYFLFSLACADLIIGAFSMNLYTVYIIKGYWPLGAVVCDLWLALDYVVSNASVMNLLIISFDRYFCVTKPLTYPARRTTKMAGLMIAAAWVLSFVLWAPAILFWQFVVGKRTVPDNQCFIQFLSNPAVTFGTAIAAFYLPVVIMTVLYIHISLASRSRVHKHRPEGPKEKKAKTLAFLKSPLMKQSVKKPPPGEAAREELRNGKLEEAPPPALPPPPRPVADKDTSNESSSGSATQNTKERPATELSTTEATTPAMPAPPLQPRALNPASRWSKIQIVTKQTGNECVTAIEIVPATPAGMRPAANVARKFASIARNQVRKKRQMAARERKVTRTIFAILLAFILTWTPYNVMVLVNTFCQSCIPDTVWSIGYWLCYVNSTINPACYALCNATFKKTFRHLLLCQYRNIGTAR
Particulars: pERK; rank hM4>hM1.
From the text: as §1, §2, §3, §4

The target in data set [5] is T4, muscarinic acetylcholine receptor human M3 (hM3) (Homo sapiens, UniProt P20309).
T4 construct: expressed in transfected cells
T4 sequence (P20309 whole entry): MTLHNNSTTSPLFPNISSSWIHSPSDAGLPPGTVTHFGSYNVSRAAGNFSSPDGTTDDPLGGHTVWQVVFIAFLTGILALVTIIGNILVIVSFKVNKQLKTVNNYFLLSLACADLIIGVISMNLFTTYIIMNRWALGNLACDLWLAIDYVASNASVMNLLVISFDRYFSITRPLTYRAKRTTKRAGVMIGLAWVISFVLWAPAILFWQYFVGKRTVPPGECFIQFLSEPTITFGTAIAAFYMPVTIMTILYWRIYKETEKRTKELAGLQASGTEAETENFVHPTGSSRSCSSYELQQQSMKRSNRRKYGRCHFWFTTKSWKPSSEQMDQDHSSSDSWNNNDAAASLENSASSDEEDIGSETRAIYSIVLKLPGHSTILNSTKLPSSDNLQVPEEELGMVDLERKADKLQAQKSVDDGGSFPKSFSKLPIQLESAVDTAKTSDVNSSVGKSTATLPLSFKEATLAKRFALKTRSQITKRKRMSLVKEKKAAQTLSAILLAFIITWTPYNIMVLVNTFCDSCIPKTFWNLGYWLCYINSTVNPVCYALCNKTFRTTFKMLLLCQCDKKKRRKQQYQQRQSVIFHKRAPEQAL
Kind of data set: pERK dose response in CHO cells stably expressing hM3. Type of data set: cell-based. Particulars: for EC50: CHO cells expressing hM3, 5-minute incubation, normalized to maximum FBS response, n=3, read-out: pEC50 (pERK), M3 (converted); for agonist capacity at hM3: pERK, rank hM3>hM5>hM2.

Molecules are shown by their SMILES. Structures can show the parent of a compound that is named as a salt.

With `CCCCCCOc1nsnc1C1=CCCN(C)C1` [Xanomeline tartrate, 3-(hexyloxy)-4-(1-methyl-1,2,5,6-tetrahydropyridin-3-yl)-1,2,5-thiadiazole, reference compound], in data set [1], the “normalized AUC” value was 4210 pg·h/mg.
Consider `[2H]C([2H])([2H])C([2H])([2H])C([2H])([2H])C([2H])([2H])C([2H])([2H])C([2H])([2H])Oc1nsnc1C1=CCCN(C)C1` [Xanomeline-d13, 3-((hexyl-1,1,2,2,3,3,4,4,5,5,6,6,6-d13)oxy)-4-(1-methyl-1,2,5,6-tetrahydropyridin-3-yl)-1,2,5-thiadiazole], for which the “agonist capacity at hM5” value in data set [2] is given as “modestly potent partial agonists”. In addition, in data set [3], the “agonist capacity at hM2” value is “modestly potent partial agonists”. Besides, the “agonist capacity at hM4” value in data set [4] is recorded as “efficacious partial agonist”. Besides, in data set [1], the “normalized AUC” value came to 8070 pg·h/mg. For the same compound, in data set [5], the EC50 was 9.66 nM and the “agonist capacity at hM3” value is “modestly potent partial agonists”.
`[2H]C([2H])([2H])N1CCC=C(c2nsnc2OC([2H])([2H])C([2H])([2H])C([2H])([2H])C([2H])([2H])C([2H])([2H])C([2H])([2H])[2H])C1` [Xanomeline-d16, 3-((hexyl-1,1,2,2,3,3,4,4,5,5,6,6,6-d13)oxy)-4-(1-(methyl-d3)-1,2,5,6-tetrahydropyridin-3-yl)-1,2,5-thiadiazole]: in data set [2], the “agonist capacity at hM5” value was “modestly potent partial agonists”. For the same compound, the “agonist capacity at hM2” value in data set [3] was “modestly potent partial agonists”. Moreover, the “agonist capacity at hM4” value in data set [4] is given as “efficacious partial agonist”. In data set [1], the “normalized AUC” value came out at 6780 pg·h/mg. In addition, in data set [5], the EC50 is 27.2 nM and the “agonist capacity at hM3” value is recorded as “modestly potent partial agonists”.

These data come from patent US20220144817A1 (Karuna Therapeutics, Inc., priority 2019, published 2022).
